In patent US4060526A, “1-Heterocyclic alkyl-1,2,3,4-tetrahydroquinazolinones and analgesic intermediates thereof” (priority 1976, dated 1977):
Like-named read-outs stand apart in the source and are kept apart here.

How the values were obtained:
in vivo [1] = assay: in vivo
NARCOTIC ANTAGONISM = assay: narcotic antagonism (Table IV); assay type: in vivo; conditions: I.P.
Protocol: (§1) The compounds of this invention were tested for their ability to antagonize narcotic analgesics by two different tests. […] Another test used for narcotic antagonist activity was published by Harris & Pearson. This test is modification of the D'Amour & Smith method.
(§2) In the original method the time required for rats to flick their tails following application of a heat stimulus is taken as a measure of analgesic potency.

sciatic nerve = assay: local anesthesia, sciatic block; assay type: in vivo, mice; conditions: Pos. = blockade took place and leg and foot returned to normal after a time
Excerpt: An effective local anesthetic causes a blockade of the nerves of the lower leg and foot causing the animal, when permitted to walk, to do so flatfooted, rather than its normal habit, up on its toes. Alternatively an effective local anesthetic, by the sciatic block method, can cause the leg to be dragged by the animal when walking so long as effective sciatic block persists. Toxic agents may effect the same apparent results, but the blockade effected by toxic agents is irreversible. However, in contrast to toxic agents, an effective local anesthetic permits recovery of the use of the leg and foot after a period of time.
The mice used in the sciatic block test were placed in a holder with their hind limbs extended. A quantity of the test compound (e.g. 0.05 ml) was injected into the area surrounding the sciatic nerve at the juncture of the two major leg muscles. Effective local anesthetic activity is indicated in Table IV ("Pos." --meaning that the blockade did take place and that the leg and foot returned to normal after a time.)

MOUSE TAIL STIMULATION = assay: mouse tail stimulation analgesia; conditions: for ED50: Mus musculus, sc, read-out: MOUSE TAIL STIMULATION ED50
in vivo [2] = conditions: mouse
in vivo [3] = assay: in vivo; remark: listed apart in the source
heat stimulus [4] = assay: mouse hot plate test (Eddy and Leimbach, modified); conditions: Mus musculus, read-out: Hot Plate ED50
[5] = system: oxymorphone induced mydriasis; assay: antagonism of oxymorphone induced mydriasis; assay type: in vivo, mice; conditions: mice; words
Protocol: as §1

[6] = system: phenylbenzoquinone writhing; assay: phenylbenzoquinone writhing test, mouse; assay type: in vivo; conditions: po; Mouse p.o.
Protocol: (§5) In addition to the hot plate method, the writhing test described by Sigmund et al., Soc. Exp. Biol. and Med. 95:729 (1957) has been applied in both rats and mice as further indication of analgesics. […] The stimulus of intraperitoneal injection of phenylbenzoquinone results in a writhing syndrome characterized by periodic twisting and stretching of the body with extension of the hind legs. […] The dose of compound protecting 50% of the animals is determined and expressed as the ED50. Ten animals are used at each dose level.

[7] = phenylbenzoquinone writhing test, mouse; assay type: in vivo; conditions: mouse, in vivo, po, Mouse p.o.
Protocol: as §5

heat stimulus [8] = assay: D'Amour Smith Rat Tail Flick; assay type: in vivo; conditions: Sub. cut.
Excerpt: as §2

acute toxicity, cat = conditions: in vivo, ip; Cat i.p.; preliminary result (740-222)
Protocol: (§3) Compounds were administered in 2% clearjel as a suspension except in
(§4) Toxicities have only been run with male animals to date.

acute toxicity, rat = conditions: in vivo, sc; Rat s.c.; preliminary result
Protocol: as §3, §4

Structure (SMILES) | LD50 (in vivo [1]; ip) [mg/kg] | NOAEL (in vivo [1]; ip) [mg/kg] | NARCOTIC ANTAGONISM (NARCOTIC ANTAGONISM) | LOCAL ANESTHESIA SCIATIC BLOCK (sciatic nerve) | further results
Cl.Cl.Cl.NC(=O)c1ccccc1NCCN1CCN(Cc2ccccc2)CC1 [Example XX, 2-(2-[4-Benzyl-1-piperazinyl]ethylamino)benzamide trihydrochloride] | 100 | 10 | Positive |  | 
CS(=O)(=O)O.O=C1NC(c2ccccc2)N(CCN2CCC(O)(c3ccccc3)CC2)c2ccccc21 (stereo not shown) [Example XXVI, 1-[2-(4-Hydroxy-4-phenylpiperidino)ethyl]-2-phenyl-1,2,3,4-tetrahydro-4-quinazolinone Methanesulfonate] | 200 | 3 | Negative | Positive | 
COC(=O)c1ccccc1NCCN1CCN(c2ccccc2)CC1 [XII, Methyl 2-[2-(1-phenyl-4-piperazinyl)ethylamino]benzoate] | 300 | 300 | Negative | Positive | 
CCC(=O)OC1(c2ccccc2)CCN(CCNc2ccccc2C(=O)NC)CC1 [XXIX, 2-[2-(4-Propionoxy-4-phenylpiperidyl)ethylamino]-N-methyl-benzamide] |  |  |  |  | LD50 (in vivo [1]; po): 16 mg/kg
NC(=O)c1ccccc1NCCN1CCC(c2ccccc2)CC1 [XXX, 2-[2-(4-phenyl-1-piperidyl)ethylamino]benzamide] | 200 | 10 | Positive | Positive | 
NC(=O)c1ccccc1NCCN1CCCCC1 [XXXI, 2-[N-β-(1-Piperidinoethyl)amino]benzamide] | 40 | 10 | Positive |  | 
CCC(=O)OC1(c2ccccc2)CCN(CCN(Cc2ccccc2)c2ccccc2C(=O)NC)CC1 [XXVIII, 2-[Benzyl-(2-[4-propionoxy-4-phenylpiperidyl]ethyl)amino]-N-methyl-benzamide] |  |  |  |  | LD50 (in vivo [1]; po): 250 mg/kg
CC(CNc1ccccc1C(N)=O)N1CCN(c2ccccc2)CC1.Cl (stereo not shown) [XIV, 2-[2-(4-phenyl-1-piperazinyl)propylamino]benzamide hydrochloride] | 300 | 10 | Positive | Positive | 
Cl.O=C(c1ccccc1NCCN1CCN(c2ccccc2)CC1)N1CCOCC1 [XVI, N-(2-[2-(1-phenyl-4-piperazinyl)ethylamino]benzoyl) morpholine hydrochloride] | 250 | 10 | Positive |  | ED50 (MOUSE TAIL STIMULATION): 30 mg/kg
COc1ccc(N2CCN(CCNc3ccccc3C(N)=O)CC2)cc1 [VII, 2-[2-(1-[p-Methoxyphenyl]-4-piperazinyl)ethylamino] benzamide] | 300 | 3 | Positive | Positive | 
CC(CN1CCN(c2ccccc2)CC1)Nc1ccccc1C(N)=O (stereo not shown) [XXXII, 2-[1-methyl-2-(4-phenyl-1-piperazinyl)ethylamino]benzamide] | 300 | 3 | Negative |  | 
CCOC(=O)C1(c2ccccc2)CCN(C)CC1 [Merperidine, reference compound] | 130 | 30 | Negative | Positive | ED50 (MOUSE TAIL STIMULATION): 1.8 mg/kg
O=C(Nc1ccccc1)c1ccccc1NCCN1CCN(c2ccccc2)CC1 [XXII, 2-[2-(1-Phenyl-4-piperazinyl)ethylamino]-N-phenylbenzamide] | 300 | 0.3 | Positive | Negative | 
COc1ccc2c3c1O[C@H]1[C@@H](O)C=C[C@H]4[C@@H](C2)N(C)CC[C@@]341 [Codeine, reference compound] |  |  |  |  | selectivity ratio (in vivo [2]; ip, HNSD./ED50 H.P., Mouse i.p., HNSD = highest dose without gross symptoms): 2.6; selectivity ratio (in vivo [2]; ip, LD50 /ED50 H.P., Mouse i.p.): 8.7; selectivity ratio (in vivo [2]; po, HNSD./ED50 H.P., Mouse p.o., HNSD = highest dose without gross symptoms): 5; selectivity ratio (in vivo [2]; po, LD50 /ED50 H.P., Mouse p.o.): 27; LD50 at 48 h (in vivo [3]; mouse, ip): 104 mg/kg; LD50 at 48 h (in vivo [3]; mouse, po): 540 mg/kg; ED50 (heat stimulus [4]; ip): 12 mg/kg; ED50 (heat stimulus [4]; po): 20 mg/kg; effect of narcotic agents on pupil size [5]: no change or an increase in the pupil size; ED50 [6]: 17 mg/kg; selectivity ratio ([7]; HNSD = highest dose without gross symptoms, read-out: HNSD./ED50 Writhing): 5.9; selectivity ratio ([7]; read-out: LD50 /ED50 Writhing): 32
NC(=O)c1cc([N+](=O)[O-])ccc1NCCN1CCN(c2ccccc2)CC1 [XIX, 5-Nitro-2-(2-[4-phenyl-1-piperazinyl]ethylamino)benzamide] |  |  | Negative |  | LD50 (in vivo [1]; po): 300 mg/kg
CN1CC[C@]23c4c5ccc(O)c4O[C@H]2[C@@H](O)C=C[C@H]3[C@H]1C5 [Morphine, reference compound] |  |  | Negative |  | Rat Tail Flick ED50 (heat stimulus [8]): 15 mg/kg; MOUSE TAIL STIMULATION ED50 (MOUSE TAIL STIMULATION; S.C.): 1.5 mg/kg
NC(=O)c1ccccc1N(CCN1CCC(O)(c2ccccc2)CC1)Cc1ccccc1 [Example XXVII (Step 4 Title Compound), 2-[Benzyl-(2-[4-hydroxy-4-phenylpiperidyl]ethyl)amino]benzamide] | 60 | 10 |  |  | 
CC(C)=CCN1CCC2(C)c3cc(O)ccc3CC1C2C (stereo not shown) [Pentazocine, reference compound] | 140 | 30 | Positive | Positive | 
Cl.NC(=O)c1cc(N)ccc1NCCN1CCN(c2ccccc2)CC1 [XXI, 5-Amino-2-(2-[4-phenyl-1-piperazinyl]-ethylamino)benzamide hydrochloride] | 200 | 10 | Positive | Positive | 
CCC(=O)OC1(c2ccccc2)CCN(CCNc2ccccc2C(N)=O)CC1 [Example XXVII, 2-[2-(4-propionoxy-4-phenylpiperidyl)ethylamino]benzamide] | 60 | 0.1 |  |  | ED50 (MOUSE TAIL STIMULATION): 0.03 mg/kg
CCC(=O)OC1(c2ccccc2)CCN(CCN(Cc2ccccc2)c2ccccc2C(N)=O)CC1 [Example XXVII (Step 5 Title Compound)] | 100 | 3 | Negative |  | 
CCOc1ccc(NCCN2CCN(c3ccccc3)CC2)c(C(N)=O)c1 [XXIV, 5-Ethoxy-2-(2-[4-phenyl-1-piperazinyl]ethylamino)benzamide] | 300 | 30 | Negative |  | 
NC(=O)c1ccccc1NCCN1CCN(c2ccccc2)CC1 [Example 730-372A, 2-[2-(4-[1-Phenyl]piperazinyl)ethylamino]-benzamide] |  |  |  |  | LD50 at 48 h (acute toxicity, cat): > 1000 mg/kg; LD50 at 48 h (acute toxicity, rat): > 1000 mg/kg; LD50 at 48 h (in vivo [3]; ip, Mouse i.p., read-out: LD50 (48 hr)): > 1000 mg/kg; LD50 at 48 h (in vivo [3]; iv, Mouse i.v., solution (5mg/ml) in distilled water, read-out: LD50 (48 hr)): 50 mg/kg; LD50 at 48 h (in vivo [3]; po, Mouse p.o., read-out: LD50 (48 hr)): > 1000 mg/kg; LD50 at 48 h (in vivo [3]; sc, Mouse s.c., read-out: LD50 (48 hr)): > 1000 mg/kg
CNC(=O)c1ccccc1NCCN1CCN(c2ccccc2)CC1 [XV, 2-(2-[4-phenyl-1-piperazinyl]ethylamino)-N-methylbenzamide] | 200 | 3 | Positive | Positive | 
COc1ccc(NCCN2CCN(c3ccccc3)CC2)c(C(N)=O)c1 [XVIII, 5-Methoxy-2-(2[4-phenyl-1-piperazinyl]ethylamino)benzamide] | 300 | 1 | Positive |  | 
Cl.NC(=O)c1ccccc1NCCN1CCN(CCc2ccccc2)CC1 [XVII, 2-[2-(4-phenethyl-1-piperazinyl)ethylamino]benzamide hydrochloride] | 70 | 10 | Negative | Positive | 
